Measurements taken from US8178506B2, “Oligomeric compounds and compositions for use in modulation of small non-coding RNAs” (Regulus Therapeutics Inc., priority 2003, dated 2012).
In the oligonucleotide strings, read from the 5' end, every base follows the letter of its sugar. An asterisk marks phosphorothioate; unmarked linkages are phosphodiester. Other units and linkages are bracketed, terminal groups are in braces. A string of capitals states the bases alone. e = 2'-O-(2-methoxyethyl) (MOE); [5mC] = 5-methylcytosine; d = 2'-deoxy (DNA)

Legend:
Format in all cases: cell-based, human
adipocytes = assay: Triglyceride accumulation assay in adipocytes
Protocol: The triglyceride accumulation assay measures the synthesis of triglyceride by adipocytes. Triglyceride accumulation is measured using the Infinity™ Triglyceride reagent kit (Sigma-Aldrich, St. Louis, Mo.). On day nine post-transfection, cells are washed and lysed at room temperature, and the triglyceride assay reagent is added. Triglyceride accumulation is measured based on the amount of glycerol liberated from triglycerides by the enzyme lipoprotein lipase. Liberated glycerol is phosphorylated by glycerol kinase, and hydrogen peroxide is generated during the oxidation of glycerol-1-phosphate to dihydroxyacetone phosphate by glycerol phosphate oxidase. Horseradish peroxidase (HRP) uses H2O2 to oxidize 4-aminoantipyrine and 3,5 dichloro-2-hydroxybenzene sulfonate to produce a red-colored dye. Dye absorbance, which is proportional to the concentration of glycerol, is measured at 515 nm using an UV spectrophotometer. Glycerol concentration is calculated from a standard curve for each assay, and data are normalized to total cellular protein as determined by a Bradford assay (Bio-Rad Laboratories, Hercules, Calif.).
An increase in triglyceride content is another well-established marker for adipocyte differentiation. The triglyceride accumulation assay measures the synthesis of triglyceride by adipocytes. Triglyceride accumulation was measured using the Infinity™ Triglyceride reagent kit (Sigma-Aldrich, St. Louis, Mo.). Human white preadipocytes (Zen-Bio Inc., Research Triangle Park, N.C.) were grown in preadipocyte media (ZenBio Inc.). One day before transfection, 96-well plates were seeded with 3000 cells/well. Cells were transfected according to standard published procedures with 250 nM oligomeric compound in LIPOFECTIN™ (Invitrogen Corporation, Carlsbad, Calif.) (Monia et al., J. Biol. Chem. 1993 268(19):14514-22). Oligomeric compounds were tested in triplicate on each 96-well plate, and the effects of TNF-α, a positive drug control that inhibits adipocyte differentiation, were also measured in triplicate. Negative and transfectant-only controls may be measured up to six times per plate. After the cells have reached confluence (approximately three days), they were exposed to differentiation media (Zen-Bio, Inc.) containing a PPAR-γ agonist, IBMX, dexamethasone, and insulin for three days. Cells were then fed adipocyte media (Zen-Bio, Inc.), which was replaced at 2 to 3 day intervals. […] Triglyceride accumulation was measured based on the amount of glycerol liberated from triglycerides by the enzyme lipoprotein lipase. Liberated glycerol is phosphorylated by glycerol kinase, and hydrogen peroxide is generated during the oxidation of glycerol-1-phosphate to dihydroxyacetone phosphate by glycerol phosphate oxidase. Horseradish peroxidase (HRP) uses H2O2 to oxidize 4-aminoantipyrine and 3,5 dichloro-2-hydroxybenzene sulfonate to produce a red-colored dye. Dye absorbance, which is proportional to the concentration of glycerol, was measured at 515 nm using an UV spectrophotometer. Glycerol concentration was calculated from a standard curve for each assay, and data were normalized to total cellular protein as determined by a Bradford assay (Bio-Rad Laboratories, Hercules, Calif.). Results are expressed as a percent±standard deviation relative to transfectant-only control.

Glut4 = Glut4 mRNA expression in adipocytes (real-time PCR)
Protocol: (§1) Expression of the four hallmark genes, HSL, aP2, Glut4, and PPARγ, is also measured in adipocytes transfected with oligomeric compounds of the invention. Cells are lysed on day nine post-transfection and total RNA is harvested. The amount of total RNA in each sample is determined using a Ribogreen Assay (Invitrogen Life Technologies, Carlsbad, Calif.).
(§2) For assaying adipocyte differentiation, expression of the four hallmark genes, HSL, aP2, Glut4, and PPARγ, as well as triglyceride (TG) accumulation and leptin secretion were measured in adipocytes transfected with the uniform 2′-MOE phosphorothioate (PS) oligomeric compounds previously described. Cells are lysed on day nine post-transfection, in a guanadinium-containing buffer and total RNA is harvested. Real-time PCR is performed (Applied Biosystems, Prism 7700) on the total RNA using the following primer/probe sets for the adipocyte differentiation hallmark genes: (aP2): forward 5′-GGTGGTGGAATGCGTCATG-3′ (SEQ ID NO: 746), reverse 5′-[…]-3′ (SEQ ID NO: 747), probe 5′-FAM-[…]-TAMRA-3′ (SEQ ID NO: 748); (Glut4): forward 5′-GGCCTCCGCAGGTTCTG-3′ (SEQ ID NO: 749), reverse 5′-[…]-3′ (SEQ ID NO: 750), probe 5′-FAM-[…]-TAMRA-3′ (SEQ ID NO: 751); (HSL): forward 5′-ACCTGCGCACAATGACACA-3′ (SEQ ID NO: 752), reverse 5′-[…]-3′ (SEQ ID NO: 753), probe 5′-FAM-[…]-TAMRA-3′ (SEQ ID NO: 754); (PPAR-γ): forward 5′-[…]-3′ (SEQ ID NO: 755), reverse 5′-[…]-3′ (SEQ ID NO: 756), probe 5′-FAM-[…]-TAMRA-3′ (SEQ ID NO: 757). The amount of total RNA in each sample is determined using a Ribogreen Assay (Molecular Probes, Eugene, Oreg.), and expression levels of the adipocyte differentiation hallmark genes were normalized to total RNA.

aP2 = aP2 mRNA expression in adipocytes (real-time PCR); settings: for aP2 mRNA: differentiating adipocytes transfected with oligomeric compound, Table 75
Protocol: as §1, §2

PPARγ = PPARγ mRNA expression in adipocytes (real-time PCR)
Protocol: as §1, §2

HSL = HSL mRNA expression in adipocytes (real-time PCR)
Protocol: as §1, §2

[1] = 300 nM, differentiating adipocytes day 10 post-induction, 24 hours after treatment
[2] = Table 17, differentiating adipocytes, control = treatment with ISIS 342673
[3] = Table 18, differentiating adipocytes, control = treatment with ISIS 342673
[4] = differentiating adipocytes transfected with oligomeric compound, Table 75

| Substance | Triglycerides (adipocytes; [1]) [% UTC] | TG (triglyceride accumulation) (adipocytes; [2]) | TG (triglyceride accumulation) (adipocytes; [3]) | GLUT4 mRNA (Glut4; [1]) [% UTC] | GLUT4 mRNA (Glut4; [2]) | GLUT4 mRNA (Glut4; [3]) | AP2 mRNA (aP2; [1]) [% UTC] | AP2 mRNA (aP2; [2]) | AP2 mRNA (aP2; [3]) | PPAR-gamma mRNA (PPARγ; [1]) [% UTC] | PPAR gamma mRNA (PPARγ; [2]) | PPAR gamma mRNA (PPARγ; [3]) | HSL mRNA (HSL; [1]) [% UTC] | HSL mRNA (HSL; [2]) | HSL mRNA (HSL; [3]) | TG (triglyceride accumulation) (adipocytes; [4]) | GLUT4 mRNA (Glut4; [4]) | aP2 mRNA (aP2) | PPAR gamma mRNA (PPARγ; [4]) | HSL mRNA (HSL; [4]) |
| --- | --- | --- | --- | --- | --- | --- | --- | --- | --- | --- | --- | --- | --- | --- | --- | --- | --- | --- | --- | --- |
| 105990 (antisense AGCAAAAGATCAATCCGTTA; sugars from the 5' end e5 d10 e5, backbone and methylation of C not given here) [compound 105990] | 16.6 | 28.2 percentage of control | 32.8 percentage of control | 11.8 | 59.5 percentage of control | 68.1 percentage of control | 17.9 | 51.6 percentage of control | 49.8 percentage of control | 43.9 | 51.8 percentage of control | 60.1 percentage of control | 7.4 | 49.2 percentage of control | 52.0 percentage of control |  |  |  |  |  |
| 327969 (antisense eT*eG*eT*eG*eA*eG*eT*eT*e[5mC]*eT*eA*e[5mC]*e[5mC]*eA*eT*eT*eG*e[5mC]*e[5mC]*eA*eA*eA) [compound 327969] |  |  | 46.0 percentage of control |  |  | 60.6 percentage of control |  |  | 59.8 percentage of control |  |  | 69.2 percentage of control |  |  | 66.4 percentage of control | 34 percentage of untreated control (UTC) | 36 percentage of untreated control (UTC) | 44 percentage of untreated control (UTC) | 67 percentage of untreated control (UTC) | 45 percentage of untreated control (UTC) |
| 327970 (antisense eA*e[5mC]*eA*eA*eA*eG*eT*eT*e[5mC]*eT*eG*eT*eA*eG*eT*eG*e[5mC]*eA*e[5mC]*eT*eG*eA) [compound 327970] |  |  |  |  |  |  |  |  |  |  |  |  |  |  |  | 48 percentage of untreated control (UTC) | 27 percentage of untreated control (UTC) | 29 percentage of untreated control (UTC) | 46 percentage of untreated control (UTC) | 25 percentage of untreated control (UTC) |
| 327972 (antisense eA*e[5mC]*eT*e[5mC]*eA*e[5mC]*e[5mC]*eG*eA*e[5mC]*eA*eG*eG*eT*eT*eG*eA*eA*eT*eG*eT*eT) [compound 327972] |  |  |  |  |  |  |  |  |  |  |  |  |  |  |  | 67 percentage of untreated control (UTC) | 75 percentage of untreated control (UTC) | 70 percentage of untreated control (UTC) | 85 percentage of untreated control (UTC) | 70 percentage of untreated control (UTC) |
| 328089 (antisense eA*e[5mC]*eT*eG*eT*eA*eG*eG*eA*eA*eT*eA*eT*eG*eT*eT*eT*eG*eA*eT*eA) [compound 328089] |  |  |  |  |  |  |  |  |  |  |  |  |  |  |  | 67 percentage of untreated control (UTC) | 59 percentage of untreated control (UTC) | 50 percentage of untreated control (UTC) | 79 percentage of untreated control (UTC) | 55 percentage of untreated control (UTC) |
| 328090 (antisense eA*eT*eT*eA*eA*eA*eA*eA*eG*eT*e[5mC]*e[5mC]*eT*e[5mC]*eT*eT*eG*e[5mC]*e[5mC]*e[5mC]*eA) [compound 328090] |  |  |  |  |  |  |  |  |  |  |  |  |  |  |  | 128 percentage of untreated control (UTC) | 86 percentage of untreated control (UTC) | 68 percentage of untreated control (UTC) | 95 percentage of untreated control (UTC) | 81 percentage of untreated control (UTC) |
| 328091 (antisense eG*e[5mC]*eT*eG*e[5mC]*e[5mC]*eG*eT*eA*eT*eA*eT*eG*eT*eG*eA*eT*eG*eT*e[5mC]*eA) [compound 328091] |  |  |  |  |  |  |  |  |  |  |  |  |  |  |  | 48 percentage of untreated control (UTC) | 26 percentage of untreated control (UTC) | 46 percentage of untreated control (UTC) | 85 percentage of untreated control (UTC) | 40 percentage of untreated control (UTC) |
